Data as given in patent US20260315604A1, “OTUB1 Small-Molecule Binders and OTUB1-recruiting Deubiquitinase-targeting Chimeras (DUBTACs)” (ICAHN SCHOOL OF MEDICINE AT MOUNT SINAI, priority 2023, published 2026).

Molecular target: T1, Human OTUB1 wild-type (Homo sapiens, UniProt Q96FW1)
T1 construct: His tag (N); made in house; host or cells: E. coli BL21-CodonPlus (DE3)-RIPIL
Assay: Covalent modification of OTUB1 (adduct formation), mass spectrometry-based assay (OTUB1 covalent binders; selected CFTR or cGAS based bivalent compounds)
Assay type: binding
Conditions: covalent adduct formation with OTUB1 protein
Experimental: OTUB1 covalent binders were tested for their ability to form the covalent adduct with OTUB1 protein using a mass-spectrometry based assay.
Example 389. Assessment of the Covalent Modification of OTUB1 Protein by Selected OTUB1 Covalent Binders Using a Mass Spectrometry-Based Assay (FIG. 1)
OTUB1 protein (10 μM) was incubated with selecting compounds (2500 μM) at RT for 1 h. The adduct was qualified by mass spectrometry-based assays.
Example 398. Assessment of the Covalent Modification of OTUB1 Protein by Selected CFTR Based Bivalent Compounds Using Mass Spectrometry-Based Assay (FIG. 10)
OTUB1 protein (10 μM) was incubated with selecting bivalent compounds (2500 μM) at RT for 1 h. The adduct was qualified by mass spectrometry-based assays.
Human OTUB1 wild-type (NM_017670.3) and C23S mutation genes were optimized based on the codon preference of E. coli, synthesized and cloned into pET15b vector with a N-terminal His tag by Genscript, respectively. The plasmid was transferred to BL21-CodonPlus (DE3)-RIPIL Competent Cell (230280, Agilent Technologies) and the recombinant protein was induced expressed by 0.5 mM IPTG at 16° C. with shaking 200 rpm for 18 h. Induced cells were harvested by centrifugation and resuspended in cold lysis buffer (50 mM Tris-H—Cl pH 7.5, 150 mM NaCl, 25 mM imidazole pH 7.5, 0.01% IGEPAL, 5% Glycerol) in the presence of Pierce Protease Inhibitor tablets (PIA32963, Fisher Scientific) and 2 mM TCEP pH 7.5.
The cells were lysed by sonication, clarified by centrifugation, and the filtered supernatant loaded onto a 5 ml HisTrap HP affinity column (17524802, Cytiva) in AKTA system. The His-recombinant protein bound to column was washed using buffer A (50 mM Tris-HCl pH 7.5, 150 mM NaCl, 25 mM imidazole pH 7.5, 0.01% IGEPAL, 5% Glycerol) and eluted with buffer B (50 mM Tris-HCl pH 7.5, 150 mM NaCl, 250 mM imidazole pH 7.5, 0.01% IGEPAL, 5% Glycerol). The eluted fractions containing OTUB1 protein were concentrated and subjected to size exclusion chromatography using a 320 mL HiLoad 26/600 Superdex 200 pg column (28989336, Cytiva) under the buffer condition ([…] Tris-HCl pH 7.5, 150 mM NaCl, and 2 mM TCEP pH 7.5). The eluted fractions containing OTUB1 protein were concentrated, divided into aliquots and stored at −80° C. freezer for further usage.
Quality control of the OTUB1 proteins was performed by SDS-PAGE, Nanodrop and mass spectrometry.
Mass Spectrometry-Based Analysis of OTUB1-Covalent Ligand Adducts
To screen the covalent ligands, recombinant OTUB1 protein (10 μM) was respectively incubated with DMSO, EN523 or seven novel ligands (2500 μM) in reaction buffer (50 mM Tris-HCl pH 7.5, 150 mM NaCl, and 0.5 mM TCEP pH 7.5) for 1 h at room temperature.
Then, the total 500 μL reaction solution was exchanged and concentrated to 50 μL 50 mM ammonium bicarbonate with a 10 kDa MWCO centrifugal filter unit (UFC901024, Millipore) and diluted in MS buffer (30% ACN, 0.2% FA) to a final concentration of […]. Mass spectrometry detection was performed by an Agilent LC/MSD Time-Of-Flight (TOF) mass spectrometer (Agilent Technologies) equipped with an electrospray ion source. The data was analyzed by TOF Protein Confirmation Software. All experiments were performed in duplicate.

T1 sequence (Q96FW1 whole entry): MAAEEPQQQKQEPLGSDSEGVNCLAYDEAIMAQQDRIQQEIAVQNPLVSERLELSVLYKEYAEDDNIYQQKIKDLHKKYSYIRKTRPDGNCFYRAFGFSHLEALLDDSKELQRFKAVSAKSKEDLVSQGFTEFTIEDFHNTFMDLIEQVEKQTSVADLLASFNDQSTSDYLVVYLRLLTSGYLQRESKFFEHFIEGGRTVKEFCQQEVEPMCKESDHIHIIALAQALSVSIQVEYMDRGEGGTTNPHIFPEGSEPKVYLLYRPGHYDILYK

Compound	% of OTUB1 modified [%]
C=CC(=O)N1CCN(c2ccc(C)s2)C(=O)C1 [XS154-91, 4-acryloyl-1-(5-methylthiophen-2-yl)piperazin-2-one]	52
C=CC(=O)N1CCN(c2ncc(C)s2)C(=O)C1 [XS154-148, 4-acryloyl-1-(5-methylthiazol-2-yl)piperazin-2-one]	39
C=CC(=O)N1CCN(c2cnc(C)s2)C(=O)C1 [XS154-184, 4-acryloyl-1-(2-methylthiazol-5-yl)piperazin-2-one]	<5
C=CC(=O)N1CCN(c2cccc(C)n2)C(=O)C1 [XS159-90, 4-acryloyl-1-(6-methylpyridin-2-yl)piperazin-2-one]	<5
C=CC(=O)N1CCN(c2cnc(C)n2C)C(=O)C1 [XS165-30, 4-acryloyl-1-(1,2-dimethyl-1H-imidazol-5-yl)piperazin-2-one]	<5
C=CC(=O)N1C2CCC1CN(c1cccc(C)c1)C2 [XS165-33, 1-(3-(m-tolyl)-3,8-diazabicyclo[3.2.1]octan-8-yl)prop-2-en-1-one]	5
C=CC(=O)N1CCC(=O)N(c2cccc(C)c2)CC1 [XS165-53, 1-acryloyl-4-(m-tolyl)-1,4-diazepan-5-one]	5
C=CC(=O)N1CC2CCC(C1)N2c1cccc(C)c1 [XS165-54, 1-(8-(m-tolyl)-3,8-diazabicyclo[3.2.1]octan-3-yl)prop-2-en-1-one]	1
Cc1cccc(N2CCN(C(=O)C#C[Si](C)(C)C)CC2=O)c1 [XS165-77, 1-(m-tolyl)-4-(3-(trimethylsilyl)propioloyl)piperazin-2-one]	100
Cc1cccc(N2CCN(C(=O)/C=C/CN(C)C)CC2=O)c1 [XS165-99, (E)-4-(4-(dimethylamino)but-2-enoyl)-1-(n-tolyl)piperazin-2-one]	38
Cc1ccc(N2CCN(C(=O)/C=C/CN(C)C)CC2=O)o1 [XS165-100, (E)-4-(4-(dimethylamino)but-2-enoyl)-1-(5-methylfuran-2-yl)piperazin-2-one]	25
Cc1ccc(N2CCN(C(=O)/C=C/CN(C)C)CC2=O)s1 [XS165-105, (E)-4-(4-(dimethylamino)but-2-enoyl)-1-(5-methylthiophen-2-yl)piperazin-2-one]	70
Cc1cccc(N2CCN(C(=O)/C=C/CN(C)C)CC2=O)n1 [XS165-109, (E)-4-(4-(dimethylamino)but-2-enoyl)-1-(6-methylpyridin-2-yl)piperazin-2-one]	10
Cc1ccc(N2CCN(C(=O)CCl)CC2=O)s1 [XS165-119, 4-(2-chloroacetyl)-1-(5-methylthiophen-2-yl)piperazin-2-one]	25
Cc1cccc(N2CCN(C(=O)CCl)CC2=O)n1 [XS165-120, 4-(2-chloroacetyl)-1-(6-methylpyridin-2-yl)piperazin-2-one]	100
Cc1cccc(N2CC3CCC(C2)N3C(=O)CCl)n1 [XS165-121, 2-chloro-1-(3-(6-methylpyridin-2-yl)-3,8-diazabicyclo[3.2.1]octan-8-yl)ethan-1-one]	100
Cc1cnc(N2CCN(C(=O)CCl)CC2=O)s1 [XS165-123, 4-(2-chloroacetyl)-1-(5-methylthiazol-2-yl)piperazin-2-one]	100
Cc1ccc(N2CCN(C(=O)/C=C/CN3CCCC3)CC2=O)s1 [XS165-154, (E)-1-(5-methylthiophen-2-yl)-4-(4-(pyrrolidin-1-yl)but-2-enoyl)piperazin-2-one]	70

Continued, values first:

% of OTUB1 modified [%]	Compound
<5	Cc1ccc(N2CCN(C(=O)/C=C/CN3CCOCC3)CC2=O)s1 [XS165-155, (E)-1-(5-methylthiophen-2-yl)-4-(4-morpholinobut-2-enoyl)piperazin-2-one]
70	Cc1ccc(N2CCN(C(=O)/C=C/CN3CCCCC3)CC2=O)s1 [XS165-170, (E)-1-(5-methylthiophen-2-yl)-4-(4-(piperidin-1-yl)but-2-enoyl)piperazin-2-one]
<1	Cc1ccc(N2CCN(C(=O)/C=C/CN(C)C)CC2)s1 [XS165-172, (E)-4-(dimethylamino)-1-(4-(5-methylthiophen-2-yl)piperazin-1-yl)but-2-en-1-one]
10	Cc1ccc(N2CCN(C(=O)/C(C#N)=C/C(C)(C)C)CC2=O)s1 [XS165-177, (E)-4,4-dimethyl-2-(4-(5-methylthiophen-2-yl)-3-oxopiperazine-1-carbonyl)pent-2-enenitrile]
45	Cc1cc(C)c(N2CCN(C(=O)/C=C/CN(C)C)CC2=O)s1 [XS175-45, (E)-4-(4-(dimethylamino)but-2-enoyl)-1-(3,5-dimethylthiophen-2-yl)piperazin-2-one]
90	Cc1csc(N2CCN(C(=O)/C=C/CN(C)C)CC2=O)c1 [XS175-46, (E)-4-(4-(dimethylamino)but-2-enoyl)-1-(4-methylthiophen-2-yl)piperazin-2-one]
80	Cc1cc(N2CCN(C(=O)/C=C/CN(C)C)CC2=O)cs1 [XS175-59, (E)-4-(4-(dimethylamino)but-2-enoyl)-1-(5-methylthiophen-3-yl)piperazin-2-one]
75	CCc1ccc(N2CCN(C(=O)/C=C/CN(C)C)CC2=O)s1 [XS175-63, (E)-4-(4-(dimethylamino)but-2-enoyl)-1-(5-ethylthiophen-2-yl)piperazin-2-one]
95	CC(C)c1ccc(N2CCN(C(=O)/C=C/CN(C)C)CC2=O)s1 [XS175-64, (E)-4-(4-(dimethylamino)but-2-enoyl)-1-(5-isopropylthiophen-2-yl)piperazin-2-one]
60	Cc1sccc1N1CCN(C(=O)/C=C/CN(C)C)CC1=O [XS175-67, (E)-4-(4-(dimethylamino)but-2-enoyl)-1-(2-methylthiophen-3-yl)piperazin-2-one]
70	Cc1ccsc1N1CCN(C(=O)/C=C/CN(C)C)CC1=O [XS175-68, (E)-4-(4-(dimethylamino)but-2-enoyl)-1-(3-methylthiophen-2-yl)piperazin-2-one]
90	Cc1cc(N2CCN(C(=O)/C=C/CN(C)C)CC2=O)sc1C [XS175-70, (E)-4-(4-(dimethylamino)but-2-enoyl)-1-(4,5-dimethylthiophen-2-yl)piperazin-2-one]
40	Cc1ccc(NC(=O)C2CN(C(=O)/C=C/CN(C)C)C2)s1 [XS175-71, (E)-1-(4-(dimethylamino)but-2-enoyl)-N-(5-methylthiophen-2-yl)azetidine-3-carboxamide]
47	Cc1ccc(N2CCCN(C(=O)/C=C/CN(C)C)CC2=O)s1 [XS175-120, (E)-4-(4-(dimethylamino)but-2-enoyl)-1-(5-methylthiophen-2-yl)-1,4-diazepan-2-one]
100	Cc1ccc(NC(=O)C2CN(C(=O)CCl)C2)s1 [XS175-126, 1-(2-chloroacetyl)-N-(5-methylthiophen-2-yl)azetidine-3-carboxamide]
2	Cc1ccc(NC(=O)C2CCN(C(=O)/C=C/CN(C)C)C2)s1 (stereo not drawn) [XS175-133, (E)-1-(4-(dimethylamino)but-2-enoyl)-N-(5-methylthiophen-2-yl)pyrrolidine-3-carboxamide]
45	CC(C)c1ccc(NC(=O)C2CN(C(=O)/C=C/CN(C)C)C2)s1 [XS175-143, (E)-1-(4-(dimethylamino)but-2-enoyl)-N-(5-isopropylthiophen-2-yl)azetidine-3-carboxamide]
20	Cc1ccc(NC(=O)C2CCCCN2C(=O)/C=C/CN(C)C)s1 (stereo not drawn) [XS175-148, (E)-1-(4-(dimethylamino)but-2-enoyl)-N-(5-methylthiophen-2-yl)piperidine-2-carboxamide]
